Holding throughout (assay type): physicochemical
Data set [1] in a line: Retention of lattice water under ambient conditions and under high vacuum.
The nature of data set [2]: Heat induced decomposition by DSC and TGA. As to conditions: 10° C. per minute, nitrogen purge. The method, then: The crystalline compounds were subjected to temperature scan using a TA Instruments Q100 differential scanning calorimeter equipped with a refrigerated cooling system. Samples were loaded into aluminum pans with crimped lids. In most cases, the samples were heated to 250° C. at a rate of 10° C. per minute under a purge of nitrogen gas. The data acquisition was controlled by Thermal Advantage software Release 5.1.2 and the data were analyzed with Universal Analysis 2000 software (version 4.7A).
The crystalline compounds were subjected to temperature scan using a TA Instruments Q500 thermal gravimetric analyzer. Samples were loaded into platinum pans and heated to 250° C. at a rate of 10° C. per minute under a purge of nitrogen gas. The data acquisition was controlled by Thermal Advantage software Release 5.1.2 and the data were analyzed with Universal Analysis 2000 software (version 4.7A).

Data set [3] is described as follows: Dynamic moisture sorption (DMS) assessment. The settings on record: for solid form (PXRD) after moisture sorption-desorption: PXRD before and after the DMS experiment; for hygroscopicity: from DMS profile, Form 1 per European Pharmacopoeia Technical Guide classification; for hysteresis between sorption and desorption: two cycles of water sorption and desorption. The method, then: In one embodiment, the crystalline neutral monohydrate Form 1 is characterized by the DMS profile in FIG. 4. Samples of Form 1 were subjected to isothermal moisture sorption analysis at 25° C. […] The step-like profile at 40-60% RH may indicate capillary condensation. At 90% RH, the total moisture uptake was ˜0.5%.
In one embodiment, the crystalline neutral Form 2 is characterized by the DMS profile in FIG. 11. Samples of Form 2 were subjected to isothermal moisture sorption analysis at 25° C. With increasing relative humidity, the amount of water adsorbed by the solid increased gradually up to 75% RH and steeply between 75%-90% RH […].
In one embodiment, the crystalline neutral anhydrous Form 3 is characterized by the DMS profile in FIG. 29. The DMS thermogram of Form 3 is similar to that of Form 2 (FIG. 11). […] The sample, however, loses the adsorbed water during desorption segment and returns to an anhydrous state. Overlay of the PXRD patterns of the sample before and after it was subjected the moisture sorption-desorption experiment is shown in FIG. 30. […] Form 3, like Form 2, is hygroscopic.
In one embodiment, the crystalline neutral anhydrous Form 4 is characterized by the DMS profile in FIG. 37. […] Form-4 is non-hygroscopic. […] Form 4, which is obtained from the monohydrate Form 1, is non-hygroscopic, whereas Form 3, which is obtained from anhydrous Form 2, is hygroscopic. […] Overlay of the PXRD patterns of the sample before and after it was subjected the moisture sorption-desorption experiment is shown in FIG. 30.
Moisture sorption and desorption data on the crystalline compounds were collected on a VTI SGA-100 Vapor Sorption Analyzer. Sorption and desorption data were collected over a range of 5% to 90% relative humidity (RH) at 5% RH intervals. Equilibrium criteria used for analysis were less than 0.01% weight change in 5 minutes, with a maximum equilibration time of three hours if the weight criterion was not met. Samples were subjected to initial drying or desorption steps to 5% RH followed by the sorption-desorption cycle. Data were collected at a time interval of two minutes or 0.01% change in weight.

Data set [4] is described as follows: Slurry of Form 2 in water, analysis by PXRD. As to conditions: slurried in water (e.g., deionized water) for five days. From the text:
This experiment established that Form 2 is metastable to the monohydrate Form 1 in solutions containing water. Thus, in yet another embodiment, the crystalline neutral monohydrate Form 1 can be prepared by (a″) reslurrying the crystalline neutral Form 2 in water or an aqueous solution; (b″) heating then cooling the resulting slurry; (c″) optionally stirring or sonicating to complete dissolution; and allowing solids to form and isolating the solids to yield the crystalline neutral monohydrate Form 1. […] Step (a″) is typically conducted by first treating Form 2 with methanol, and subsequently adding water as an anti-solvent to form a slurry. Step (b″) generally involves heating the slurry to a temperature within the range of about 55-75° C., and in one embodiment to about 60° C. The cooling in step (b″) is generally to about room temperature.

Data set [5] in a line: Exposure of Form 2 to 84% relative humidity, analysis by PXRD. As to conditions: 84% RH for seven days. The text has this:
In one experiment, a sample of Form 2 was exposed to 84% RH for seven days. […] This experiment established that Form 2 is metastable to the monohydrate Form 1 in high relative humidities (>75% RH). Accordingly, in another embodiment, the crystalline neutral monohydrate Form 1 can be prepared by (a′) exposing the crystalline neutral Form 2 to high humidity; and in one embodiment exposing Form 2 to about >75% relative humidity, typically for about 5-7 days.

Structures are written as SMILES.

Take `CC(C)OC(=O)[C@H](O)CN(Cc1ccc(-c2cccc(Cl)c2)cc1)NC(=O)c1cc(O)no1` [Form 1, (R)-3-[N-(3′-chlorobiphenyl-4-ylmethyl)-N′-(3-hydroxyisoxazole-5-carbonyl)hydrazino]-2-hydroxypropionic acid isopropyl ester]: the “loss of lattice water” value in data set [1] (exposed to ambient conditions for more than a month) is given as “did not lose lattice water”. In data set [1] (placed in high vacuum for more than 24 hours), the “loss of lattice water” value was “did not lose lattice water”. In addition, the “heat induced decomposition temperature” value in data set [2] is greater than 175 °C. Besides, in data set [3], the “solid form (PXRD) after moisture sorption-desorption” value (from here on “solid form (PXRD)”) is “did not show any change in their PXRD pattern”; the hygroscopicity entry is on record as “slightly hygroscopic”; the “hysteresis between sorption and desorption” value is “did not show hysteresis”. Further, the total moisture uptake in data set [3] (isothermal moisture sorption at 25° C., at 90% RH) is roughly 0.5%.

With `CC(C)OC(=O)[C@H](O)CN(Cc1ccc(-c2cccc(Cl)c2)cc1)NC(=O)c1cc(O)no1` [Form 2, (R)-3-[N-(3′-chlorobiphenyl-4-ylmethyl)-N′-(3-hydroxyisoxazole-5-carbonyl)hydrazino]-2-hydroxypropionic acid isopropyl ester], in data set [4], the “solid form after slurrying in water” value is recorded as “PXRD pattern consistent with Form 1”. Besides, the “heat induced decomposition temperature” value in data set [2] was greater than 175 °C. For the same molecule, the “solid form after exposure to high humidity” value in data set [5] was “converts to Form 1 at high humidities”. Further, the “total quantity of water taken up in the DMS experiment” value in data set [3] (DMS, 25° C.) is recorded as 3.5-3.6%. In addition, in data set [3], the “solid form (PXRD)” value is on record as “showed a PXRD pattern that matched with the starting material”; the hygroscopicity result is “hygroscopic”; the “hysteresis between sorption and desorption” value is given as “showed distinct hysteresis”.

As to `CC(C)OC(=O)[C@H](O)CN(Cc1ccc(-c2cccc(Cl)c2)cc1)NC(=O)c1cc(O)no1` [Form 3, (R)-3-[N-(3′-chlorobiphenyl-4-ylmethyl)-N′-(3-hydroxyisoxazole-5-carbonyl)hydrazino]-2-hydroxypropionic acid isopropyl ester], in data set [3] (DMS, between 75% RH and 90% RH), the “water taken up between 75% RH and 90% RH” value is “about 3.5%”. In addition, in data set [3], the “solid form (PXRD)” value was “returns to the same solid form after moisture sorption and desorption”; the hygroscopicity result is listed as “hygroscopic”.

With `CC(C)OC(=O)[C@H](O)CN(Cc1ccc(-c2cccc(Cl)c2)cc1)NC(=O)c1cc(O)no1` [Form 4, (R)-3-[N-(3′-chlorobiphenyl-4-ylmethyl)-N′-(3-hydroxyisoxazole-5-carbonyl)hydrazino]-2-hydroxypropionic acid isopropyl ester], in data set [3] (DMS, up to 90% RH), the “water taken up when exposed up to 90% RH” value was “less than 0.1 % by weight”. Moreover, in data set [3], the “solid form (PXRD)” value is listed as “retained its solid-state structure”; the hygroscopicity entry is reported as “non-hygroscopic”; the “hysteresis between sorption and desorption” value is reported as “no hysteresis”.

(Values after US9271965B2, “Crystalline forms of (R)-3-[N-(3'-chlorobiphenyl-4-ylmethyl)-N'-(3-hydroxyisoxazole-5-carbonyl)hydrazino]-2-hydroxyproprionic acid isopropyl ester” (Theravance Biopharma R&D IP, LLC, priority 2012, dated 2016).)
